Source: patent publication US8586588B2, “Aryl pyridazinone derivatives and their use as H3 receptor ligands” (Cephalon, Inc., priority 2006, dated 2013)

Assays:
human H3 receptor = target: T1, human H3 receptor (Homo sapiens, UniProt Q9Y5N1); assay: Human H3 radioligand binding ([3H]-N-alpha-methylhistamine, CHO cell membranes, SPA); conditions: Table B
T1 construct: expressed in transfected cells
Outline: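 CHO cell membranes expressing human H3 (10 μg protein/well) incubated 4 h at room temperature, in the dark, with ~1 nM [3H]-N-alpha-methylhistamine, compounds (0.01 nM-30 μM) and SPA beads in 50 mM Tris HCl pH 7.4, 5 mM MgCl2, 0.1% BSA. Non-specific binding defined with 10 μM clobenpropit.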

[1] = target: T2, rat histamine H3 receptor (Rattus norvegicus, UniProt Q9QYN8); assay: Rat H3 radioligand binding ([3H]-N-alpha-methylhistamine, CHO-A3 cell membranes, SPA); conditions: Table B, binding constant as letter class; read-out: rat H3 Ki
T2 construct: encoding the entire 445-amino-acid rat histamine H3 receptor; expressed in transfected cells
Outline: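 Membranes from CHO-A3 cells stably expressing rat H3 (10 μg protein) incubated 4 h at room temperature in 50 mM Tris-HCl pH 7.4, 5 mM MgCl2, 0.1% BSA with ~1 nM [3H]-N-alpha-methylhistamine and compound (0.01 nM-30 μM). Bound radioligand read by scintillation proximity; nonspecific binding with 10 μM clobenpropit.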

[2] = binding constant as letter class

T2 sequence (Q9QYN8 whole entry): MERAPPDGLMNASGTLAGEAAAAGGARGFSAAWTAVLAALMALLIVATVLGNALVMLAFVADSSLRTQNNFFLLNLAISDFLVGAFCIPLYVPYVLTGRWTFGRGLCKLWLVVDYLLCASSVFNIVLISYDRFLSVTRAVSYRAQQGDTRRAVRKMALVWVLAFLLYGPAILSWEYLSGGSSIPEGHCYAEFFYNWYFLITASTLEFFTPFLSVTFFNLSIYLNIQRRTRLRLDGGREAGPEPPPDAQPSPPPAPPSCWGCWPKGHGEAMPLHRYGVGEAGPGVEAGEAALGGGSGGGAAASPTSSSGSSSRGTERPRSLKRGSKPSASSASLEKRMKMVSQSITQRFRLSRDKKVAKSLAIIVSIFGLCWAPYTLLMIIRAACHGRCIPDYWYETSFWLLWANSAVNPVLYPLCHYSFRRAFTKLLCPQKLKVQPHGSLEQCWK
T1 sequence (Q9Y5N1 whole entry): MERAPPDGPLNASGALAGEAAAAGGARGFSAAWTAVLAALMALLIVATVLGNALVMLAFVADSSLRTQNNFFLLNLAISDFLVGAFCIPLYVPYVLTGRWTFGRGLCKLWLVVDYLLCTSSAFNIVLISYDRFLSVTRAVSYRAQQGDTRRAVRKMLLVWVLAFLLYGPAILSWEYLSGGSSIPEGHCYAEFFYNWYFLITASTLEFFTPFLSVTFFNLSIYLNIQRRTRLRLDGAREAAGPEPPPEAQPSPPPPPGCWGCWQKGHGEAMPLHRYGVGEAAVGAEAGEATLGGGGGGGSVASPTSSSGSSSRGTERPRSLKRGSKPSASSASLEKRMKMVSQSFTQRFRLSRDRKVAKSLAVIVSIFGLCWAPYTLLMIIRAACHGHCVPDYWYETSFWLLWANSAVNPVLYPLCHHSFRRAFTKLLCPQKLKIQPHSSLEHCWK

Row | Compound | Ki (human H3 receptor; [2]) [nM] | Ki [1] [nM] | melting point | Ki (human H3 receptor; cell prints a number instead of a letter) [nM]
1 | O=C1CCC(c2ccc(O[C@@H]3CCN(C4CCCCC4)C3)cc2)=NN1 [Example 159, 6-[4-((R)-1-Cyclohexyl-pyrrolidin-3-yloxy)-phenyl]-4,5-dihydro-2H-pyridazin-3-one] | > 1000 | > 1000 | 184 to 186 °C | –
2 | O=c1ccc(-c2ccc(O[C@@H]3CCN(C4CCCCC4)C3)cc2)n[nH]1 [Example 160, 6-[4-((R)-1-Cyclohexyl-pyrrolidin-3-yloxy)-phenyl]-2H-pyridazin-3-one] | 101 to 500 | 101 to 500 | 200 to 202 °C | –
3 | O=C1CCC(c2ccc(OC3CCNCC3)cc2)=NN1C1CCC1 [Example 165, 2-Cyclobutyl-6-[4-(piperidin-4-yloxy)-phenyl]-4,5-dihydro-2H-pyridazin-3-one] | > 1000 | > 1000 | 168 to 170 °C | –
4 | O=c1ccc(-c2ccc(OCCCN3CCCCC3)cc2)nn1CC(F)(F)F [Example 171, 6-[4-(3-Piperidin-1-yl-propoxy)-phenyl]-2-(2,2,2-trifluoro-ethyl)-2H-pyridazin-3-one] | 0.1 to 100 | 0.1 to 100 | 128 to 130 °C | –
5 | C[C@@H]1CCCN1CCCOc1ccc(C2=NNC(=O)C3CCC23)cc1 (stereo partly drawn) [Example 173, 5-{4-[3-((R)-2-Methyl-pyrrolidin-1-yl)-propoxy]-phenyl}-3,4-diaza-bicyclo[4.2.0]oct-4-en-2-one] | 0.1 to 100 | 0.1 to 100 | 218 to 220 °C | –
6 | O=C1NN=C(c2ccc(OC3CCN(C4CCC4)CC3)cc2)C2CCCC12 (stereo not drawn) [Example 174, 4-[4-(1-Cyclobutyl-piperidin-4-yloxy)-phenyl)-2,4a,5,6,7,7a-hexahydro-cyclopenta[d]pyridazin-1-one] | 0.1 to 100 | 0.1 to 100 | > 255 °C (dec.) | –
7 | C[C@@H]1CCCN1CCCOc1ccc(C2=NNC(=O)C3CCCC23)cc1 (stereo partly drawn) [Example 175, 4-{4-[3-((R)-2-Methyl-pyrrolidin-1-yl)-propoxy]-phenyl}-2,4a,5,6,7,7a-hexahydro-cyclopenta[d]pyridazin-1-one] | 0.1 to 100 | 0.1 to 100 | 218 to 219 °C | –
8 | O=c1[nH]nc(-c2ccc(OC3CCN(C4CCC4)CC3)cc2)c2c1CCC2 [Example 176, 4-[4-(1-Cyclobutyl-piperidin-4-yloxy)-phenyl]-2,5,6,7-tetrahydro-cyclopenta[d]pyridazin-1-one] | 0.1 to 100 | 0.1 to 100 | 210 to 213 °C | –
9 | O=C1CCC(c2ccc(OC3CCN(C4CCC4)CC3)nc2)=NN1C1CCC1 [Example 177, 2-Cyclobutyl-6-[6-(1-cyclobutyl-piperidin-4-yloxy)-pyridin-3-yl]-4,5-dihydro-2H-pyridazin-3-one] | 0.1 to 100 | 0.1 to 100 | 146 to 149 °C | –
10 | C[C@@H]1CCCN1CCCOc1ccc(C2=NNC(=O)C(C)(C)C2)cc1 [Example 179, 4,4-Dimethyl-6-{4-[3-((R)-2-methyl-pyrrolidin-1-yl)-propoxy]-phenyl}-4,5-dihydro-2H-pyridazin-3-one] | 0.1 to 100 | 0.1 to 100 | 140 to 142 °C | –
11 | C[C@@H]1CCCN1CCCOc1ccc(C2=NNC(=O)CC2)cc1F [Example 180, 6-{3-Fluoro-4-[3-((R)-2-methyl-pyrrolidin-1-yl)-propoxy]-phenyl}-4,5-dihydro-2H-pyridazin-3-one] | 0.1 to 100 | 0.1 to 100 | 132 to 133 °C | –
12 | O=C1CCC(c2ccc(OCCCN3CCCCC3)c(F)c2)=NN1 [Example 181, 6-[3-Fluoro-4-(3-piperidin-1-yl-propoxy)-phenyl]-4,5-dihydro-2H-pyridazin-3-one] | 0.1 to 100 | 101 to 500 | 164 to 166 °C | –
13 | C[C@@H]1CCCN1CCCOc1ccc(C2=NNC(=O)CC2(C)C)cc1 [Example 182, 5,5-Dimethyl-6-{4-[3-((R)-2-methyl-pyrrolidin-1-yl)-propoxy]-phenyl}-4,5-dihydro-2H-pyridazin-3-one] | 0.1 to 100 | 0.1 to 100 | 118 to 121 °C | –
14 | C[C@@H]1CCCN1CCCOc1c(F)cc(-c2ccc(=O)[nH]n2)cc1F [Example 184, 6-{3,5-Difluoro-4-[3-((R)-2-methyl-pyrrolidin-1-yl)-propoxy]-phenyl}-2H-pyridazin-3-one] | 0.1 to 100 | 0.1 to 100 | 169 to 171 °C | –
15 | C[C@@H]1CCCN1CCCOc1c(Br)cc(-c2ccc(=O)[nH]n2)cc1Br [Example 185, 6-{3,5-Dibromo-4-[3-((R)-2-methyl-pyrrolidin-1-yl)-propoxy]-phenyl}-2H-pyridazin-3-one] | 0.1 to 100 | 0.1 to 100 | 165 to 167 °C | –
16 | C[C@@H]1CCCN1CCCOc1c(F)cc(C2=NNC(=O)CC2)cc1F [Example 186, 6-{3,5-Difluoro-4-[3-((R)-2-methyl-pyrrolidin-1-yl)-propoxy]-phenyl}-4,5-dihydro-2H-pyridazin-3-one] | 0.1 to 100 | 0.1 to 100 | 102 to 104 °C | –
17 | O=C1CCC(c2cc(F)c(OC3CCN(C4CCC4)CC3)c(F)c2)=NN1 [Example 187, 6-[4-(1-Cyclobutyl-piperidin-4-yloxy)-3,5-difluoro-phenyl]-4,5-dihydro-2H-pyridazin-3-one] | 0.1 to 100 | 0.1 to 100 | 162 to 164 °C | –
18 | O=c1ccc(-c2cc(F)c(OC3CCN(C4CCC4)CC3)c(F)c2)n[nH]1 [Example 188, 6-[4-(1-Cyclobutyl-piperidin-4-yloxy)-3,5-difluoro-phenyl]-2H-pyridazin-3-one] | 0.1 to 100 | 0.1 to 100 | 195 to 197 °C | –
19 | CCC1CC(=O)NN=C1c1ccc(OC2CCN(C3CCC3)CC2)cc1 (stereo not drawn) [Example 192] | – | 0.1 to 100 | 152 to 154 °C | 4

Continued, values first:

Row | Ki (human H3 receptor; [2]) [nM] | Ki [1] [nM] | melting point | Ki (human H3 receptor; cell prints a number instead of a letter) [nM] | Compound
20 | 0.1 to 100 | 0.1 to 100 | 147 to 149 °C | – | CC1(C)CC(c2ccc(OC3CCN(C4CCC4)CC3)c(F)c2)=NNC1=O [Example 153, 6-[4-(1-Cyclobutyl-piperidin-4-yloxy)-3-fluoro-phenyl]-4,4-dimethyl-4,5-dihydro-2H-pyridazin-3-one]
21 | 0.1 to 100 | 0.1 to 100 | 211 to 213 °C | – | O=c1ccc(-c2ccc(OC3CCN(C4CCCC4)CC3)cc2)n[nH]1 [Example 154, 6-[4-(1-Cyclopentyl-piperidin-4-yloxy)-phenyl]-2H-pyridazin-3-one]
22 | 0.1 to 100 | 0.1 to 100 | 215 to 220 °C | – | O=c1ccc(-c2ccc(OC3CCN(C4CCC4)CC3)cc2)n[nH]1 [Example 155, 6-[4-(1-Cyclobutyl-piperidin-4-yloxy)-phenyl]-2H-pyridazin-3-one]
23 | 0.1 to 100 | 0.1 to 100 | 236 to 238 °C | – | O=c1ccc(-c2ccc(OC3CCN(C4CCC4)CC3)c(F)c2)n[nH]1 [Example 156, 6-[4-(1-Cyclobutyl-piperidin-4-yloxy)-3-fluoro-phenyl]-2H-pyridazin-3-one]
24 | 0.1 to 100 | 0.1 to 100 | 120 to 123 °C | – | O=C1CCC(c2ccc(OC3CCN(C4CCC4)CC3)cc2)=NN1C1CCC1 [Example 163, 2-Cyclobutyl-6-[4-(1-cyclobutyl-piperidin-4-yloxy)-phenyl]-4,5-dihydro-2H-pyridazin-3-one]
25 | 0.1 to 100 | 0.1 to 100 | 100 to 104 °C | – | O=C1CCC(c2ccc(OC3CCN(C4CCCC4)CC3)cc2)=NN1C1CCC1 [Example 164, 2-Cyclobutyl-6-[4-(1-cyclopentyl-piperidin-4-yloxy)-phenyl]-4,5-dihydro-2H-pyridazin-3-one]
26 | 0.1 to 100 | 0.1 to 100 | 146 to 147 °C | – | O=C1CCC(c2ccc(OC3CCN(C4CCC4)CC3)cc2)=NN1CC(F)(F)F [Example 166, 6-[4-(1-Cyclobutyl-piperidin-4-yloxy)-phenyl]-2-(2,2,2-trifluoro-ethyl)-4,5-dihydro-2H-pyridazin-3-one]
27 | 0.1 to 100 | 0.1 to 100 | 225 to 227 °C | – | O=C1CCC(c2ccc(OC3CCN(C4CCCC4)CC3)cc2)=NN1CC(F)(F)F [Example 167, 6-[4-(1-Cyclopentyl-piperidin-4-yloxy)-phenyl]-2-(2,2,2-trifluoro-ethyl)-4,5-dihydro-2H-pyridazin-3-one]
28 | 0.1 to 100 | 0.1 to 100 | 76 to 78 °C | – | C[C@@H]1CCCN1CCCOc1ccc(C2=NN(CC(F)(F)F)C(=O)CC2)cc1 [Example 168, 6-{4-[3-((R)-2-Methyl-pyrrolidin-1-yl)-propoxy]-phenyl}-2-(2,2,2-trifluoro-ethyl)-4,5-dihydro-2H-pyridazin-3-one]
29 | 0.1 to 100 | 0.1 to 100 | 87 to 89 °C | – | O=C1CCC(c2ccc(OCCCN3CCCCC3)cc2)=NN1CC(F)(F)F [Example 169, 6-{4-[3-piperidin-1-yl-propoxy]-phenyl}-2-(2,2,2-trifluoro-ethyl)-4,5-dihydro-2H-pyridazin-3-one]
30 | 0.1 to 100 | 0.1 to 100 | 121 to 123 °C | – | C[C@@H]1CCCN1CCCOc1ccc(-c2ccc(=O)n(CC(F)(F)F)n2)cc1 [Example 170, 6-{4-[3-((R)-2-Methyl-pyrrolidin-1-yl)-propoxy]-phenyl}-2-(2,2,2-trifluoro-ethyl)-2H-pyridazin-3-one]
